Measurements taken from patent publication US20240285631A1, “METHODS OF TREATING VASCULAR MALFORMATIONS” (priority 2023, published 2024).

Tests used:
HUVECs = assay: Agilent Seahorse mitochondrial stress test in HUVECs; type: cell-based, human; design: dose or concentration left out as unconfirmed; details: HUVECs pretreated with Palbociclib, vs control cells
Excerpt: FIG. 4C illustrates representative traces of oxygen consumption rate (OCR) measured by Seahorse assay of control vs. CDK4/6i-treated HUVECs in response to oligomycin (ATP synthase inhibitor), BAM15 (mitochondrial uncoupler) and Antimycin A/Rotenone (mitochondrial respiratory chain complex III and I inhibitors) (N=6 independent experiments, Data are mean±SEM **p≤0.01, ns p>0.05). Two-way ANOVA for independent measures with Bonferonni's correction for statistical analysis. p<0.05 was considered statistically significant. The normality and homogeneity of variances assumptions were tested using Shapiro-Wilk test (p>0.05) and Mauchly's test of sphericity respectively. Quantification of mitochondrial activity expressed as basal OCR (FIG. 4D) and respiratory capacity (FIG. 4E) in control vs. CDK4/6i-treated HUVECs. […]
HUVECs (70% confluent) were treated with Palbociclib (3 mg/ml) for 12 h in EGM™2-Bulletkit™ medium (CC-3156 & CC-4176, Lonza) prior to seeding onto a Seahorse 24-well tissue culture plate (Agilent Technologies) in EMB-2 media (CC-3162 Lonza) supplemented with 0.1% FBS and Palbociclib (3 mg/ml). […] Oxygen consumption rate (OCR) was measured using a Seahorse XF24 Flux Analyzer (Agilent Technologies). […] Basal respiration was calculated by subtracting the average of the first three measurements by the average of the post-Antimycin A & Rotenone measurements. […]

[1] = tested on: retinal arteries of anti-BMP9/10-treated animals; assay: Arteriovenous identity immunostaining (JAGGED1, aSMA, ENDOMUCIN) of retinal flat-mounts, BMP9/10 Abs model; type: in vivo, mouse; details: P7
Excerpt: FIG. 12A illustrates the timeline used for BMP9/10 Abs and CDK4/6i treatments in C57bl/6 pups. FIGS. 12B-F JAGGED1 (green) and IB4 (white) in (FIG. 12B), aSMA (green) and IB4 (white) staining in (FIG. 12D) and ENDOMUCIN (green) and IB4 (white) in (FIG. 12F) of retinal flat-mounts from control, BMP9/10 Abs-treated, BMP9/10 Abs- and CDK4/6i-treated P7 C57bl/6 animals. (A: artery; V: vein; white arrow heads: AVMs). Quantification of JAGGED1 fluorescence intensity in retinal arterial ECs (FIG. 12C), of aSMA arterial coverage (FIG. 12E) and ENDOMUCIN in retinal arteries (FIG. 12G) (N=4 animals/group, 10 to 14 region of interest analyzed/group. Data are mean±SEM, one-way ANOVA with Holm-Sidak's multiple comparison test, ns p>0.05; ***p<0.01). Scale bars: […].
Finally, we assessed the effects of Palbociclib treatment on arteriovenous identity in anti-BMP9/10-treated animals following the dosing protocol shown in FIG. 12A. […] Finally, ENDOMUCIN, which is enriched in veins and capillaries in control retinas, was ectopically expressed in arteries and AV shunts in the retinal vasculature of anti-BMP9/10-treated animals, compared to controls (FIGS. 12F and 12G).
Eyes from P7 pups were pre-fixed in 4% PFA for 20 min at room temperature (RT). The retinas were dissected out and permeabilized for 30 min at RT in 0.5% Triton X-100 and then incubated with antibodies in retina buffer (1% FBS, 3% BSA and 0.5% Triton X-100 in PBS1x) overnight at 4° C. Retinas were washed with PBS1X and incubated with secondary antibodies in retina buffer for 2 h at RT. Retinas were washed with PBS1X, mounted with DAKO mounting medium (DAKO) and imaged using confocal microscopy (LEICA SP8 and LASX software). Quantification of vascular progression, density, AVM numbers and vessel diameters in the retinal vasculature were performed with Image J software.

[2] = tested on: retinal ECs of Alk1EC^iKO-Fucci2 pups; assay: Endothelial cell cycle state in Alk1EC^iKO-Fucci2 pups; type: in vivo, mouse; details: Alk1EC^iKO + CDK4/6i
Excerpt: (§1) All animal protocols and procedures were approved by the University of Virginia Animal Care and Use Committee and complied with all ethical regulations. Cdh5Cre^ERT21Rha^43 and Alk1^flox/flox were gifted from Drs. Ralf Adams and Paul Oh, respectively. R26p-Fucci2 (Fucci2) (Accession #CDB0203T)^44 and C57bl/6 mice were purchased from Riken and Jax, respectively. Cdh5Cre^ERT2 mice were crossed with Alk1^flox/flox mice (6-8-week-old) to generate Alk1EC^iKO pups. Cre activity in Alk1EC^iKO was induced in pups at P3 via a single intraperitoneal (i.p.) injection of Tamoxifen (Tx; Sigma T5648, […] of 4 mg/ml, resuspended in 10% ethanol and 90% corn oil). Alk1^flox/flox littermates were used as controls. Alk1EC^iKO mice were crossed with Fucci2 mice to generate Alk1EC^iKO-Fucci2 pups.

[3] = tested on: AVMs induced by BMP9/10 blocking antibodies; assay: Retinal vasculature analysis in BMP9/10 blocking antibody mouse model of HHT; type: in vivo; details: BMP9/10 Abs P2 and P4
[4] = tested on: retinal ECs of BMP9/10 Abs-treated Fucci2 animals; assay: Endothelial cell cycle state in BMP9/10 Abs-treated Fucci2 reporter pups; type: in vivo, mouse; details: BMP9/10 Abs + CDK4/6i, P7 Fucci2
Excerpt: as §1

CC(=O)c1c(C)c2cnc(Nc3ccc(N4CCNCC4)cn3)nc2n(C2CCCC2)c1=O [Palbociclib, 6-acetyl-8-cyclopentyl-5-methyl-2-[5-(1-piperazinyl)pyridine-2-ylamino]pyrido[2,3-d]pyrimidin-7(8H)-one]
mitochondrial basal respiration (basal OCR) (HUVECs): significantly lower
respiratory capacity (OCR) (HUVECs): significantly lower
JAG1 protein expression in retinal arterial ECs ([1]; BMP9/10 Abs + CDK4/6i vs BMP9/10 Abs only): increased in arterial ECs
ectopic arterial expression of ENDOMUCIN ([1]; BMP9/10 Abs + CDK4/6i): did not prevent the arterial expression of ENDOMUCIN
smooth muscle cell (aSMA) coverage of retinal arteries ([1]; BMP9/10 Abs + CDK4/6i): prevented the loss of SMC coverage on arteries
percentage of ECs residing in the S/G2/M phases ([2]; tamoxifen P3, Palbociclib P4, P5): significantly lower in arteries and capillaries
proportion of ECs in late G1 state ([2]; arteries and capillaries): higher proportion of ECs in late G1 state
cell cycle state of venous ECs ([2]; veins): no significant effects on venous ECs
arterial vessel diameter ([3]; CDK4/6i P4-P6, P7): not arterial vessel diameters
retinal vascular density ([3]; CDK4/6i P4-P6, P7): less hyperdense retinal vascular plexi
retinal vascular progression ([3]; CDK4/6i P4-P6, P7): normalized retinal vascular progression
venous vessel diameter ([3]; CDK4/6i P4-P6, P7): normalized
AV shunt number per retina ([3]; CDK4/6i oral gavage 120 mg/kg/d P4, P5, P6, retinas at P7, vs BMP9/10 Abs only): fewer AV shunts
EC cell cycle state (early G1, late G1, S/G2/M) in veins, arteries and capillaries [4]: predominantly in late G1 state
vascular malformations in retina of Fucci2 pups [4]: vascular malformations were absent
